Columns and labels:
Assay in all cases: relative viability (nuclei count vs DMSO), 5 days (fraction); higher = more cells survive
HCC-15 = tested on: HCC-15
In short: (§1)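 For relative viability, nuclei counts in treated wells were divided by those in vehicle wells. Lung cancer cell lines had been pin-tool dosed in 1536-well plates the day after seeding and cultured for 5 days, then fixed and stained in one step (final 0.05% Triton X-100, 1% formaldehyde, 1 ug/ml Hoechst) and imaged at 4×. Doses were one drug alone or a fixed anchor-drug dose plus five library-drug doses (not always all listed) in √10 steps, and values are duplicate-plate medians.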

NCI-H1975 = tested on: NCI-H1975
In short: as §1

ABC-1 = tested on: ABC-1
In short: as §1

ChaGo-K-1 = tested on: ChaGo-K-1
In short: as §1

NCI-H322M = tested on: NCI-H322M
In short: as §1

CAL-12T = tested on: CAL-12T
In short: as §1

NCI-H3122 = tested on: NCI-H3122
In short: as §1

NCI-H1666 = tested on: NCI-H1666
In short: as §1

NCI-H2126 = tested on: NCI-H2126
In short: as §1

EMC-BAC-2 = tested on: EMC-BAC-2
In short: as §1

NCI-H1755 = tested on: NCI-H1755
In short: as §1

NCI-H358 = tested on: NCI-H358
In short: as §1

NCI-H2085 = tested on: NCI-H2085
In short: as §1

NCI-H1915 = tested on: NCI-H1915
In short: as §1

UMC-11 = tested on: UMC-11
In short: as §1

HCC-78 = tested on: HCC-78
In short: as §1

COR-L 105 = tested on: COR-L 105
In short: as §1

NCI-H441 = tested on: NCI-H441
In short: as §1

NCI-H1993 = tested on: NCI-H1993
In short: as §1

LXF-289 = tested on: LXF-289
In short: as §1

EPLC-272H = tested on: EPLC-272H
In short: as §1

HOP-62 = tested on: HOP-62
In short: as §1

NCI-H2023 = tested on: NCI-H2023
In short: as §1

SMILES: NC(=O)Nc1cc(-c2cccc(F)c2)sc1C(=O)N[C@H]1CCCNC1 [AZD7762] + COc1cc2c(Oc3ccc(NC(=O)C4(C(=O)Nc5ccc(F)cc5)CC4)cc3F)ccnc2cc1OCCCN1CCOCC1 [Foretinib] (partner 0.25 µM)
- relative viability (HCC-15; first compound 0.01 µM): 1.06
- relative viability (HCC-15; first compound 0.03162 µM): 0.995
- relative viability (HCC-15; first compound 0.1 µM): 0.993
- relative viability (HCC-15; first compound 0.3162 µM): 1.06
- relative viability (HCC-15; first compound 1 µM): 0.983
- relative viability (NCI-H1975; first compound 0.01 µM): 0.926
- relative viability (NCI-H1975; first compound 0.03162 µM): 0.943
- relative viability (NCI-H1975; first compound 0.1 µM): 0.964
- relative viability (NCI-H1975; first compound 0.3162 µM): 0.854
- relative viability (NCI-H1975; first compound 1 µM): 0.624
- relative viability (ABC-1; first compound 0.01 µM): 1.22
- relative viability (ABC-1; first compound 0.03162 µM): 1.23
- relative viability (ABC-1; first compound 0.1 µM): 0.851
- relative viability (ABC-1; first compound 0.3162 µM): 0.402
- relative viability (ABC-1; first compound 1 µM): 0.212
- relative viability (ChaGo-K-1; first compound 0.01 µM): 0.924
- relative viability (ChaGo-K-1; first compound 0.03162 µM): 0.937
- relative viability (ChaGo-K-1; first compound 0.1 µM): 1.02
- relative viability (ChaGo-K-1; first compound 0.3162 µM): 0.899
- relative viability (ChaGo-K-1; first compound 1 µM): 0.976
- relative viability (NCI-H322M; first compound 0.01 µM): 0.979
- relative viability (NCI-H322M; first compound 0.03162 µM): 1.09
- relative viability (NCI-H322M; first compound 0.1 µM): 1.09
- relative viability (NCI-H322M; first compound 0.3162 µM): 0.601
- relative viability (NCI-H322M; first compound 1 µM): 0.315
- relative viability (CAL-12T; first compound 0.01 µM): 1.34
- relative viability (CAL-12T; first compound 0.03162 µM): 1.01
- relative viability (CAL-12T; first compound 0.1 µM): 1.13
- relative viability (CAL-12T; first compound 0.3162 µM): 0.874
- relative viability (CAL-12T; first compound 1 µM): 0.217
- relative viability (NCI-H3122; first compound 0.01 µM): 0.911
- relative viability (NCI-H3122; first compound 0.03162 µM): 0.905
- relative viability (NCI-H3122; first compound 0.1 µM): 0.995
- relative viability (NCI-H3122; first compound 0.3162 µM): 0.996
- relative viability (NCI-H3122; first compound 1 µM): 0.996
- relative viability (NCI-H1666; first compound 0.01 µM): 1.03
- relative viability (NCI-H1666; first compound 0.03162 µM): 1.07
- relative viability (NCI-H1666; first compound 0.1 µM): 1.14
- relative viability (NCI-H1666; first compound 0.3162 µM): 1.12
- relative viability (NCI-H1666; first compound 1 µM): 0.849
- relative viability (NCI-H2126; first compound 0.01 µM): 1.23
- relative viability (NCI-H2126; first compound 0.03162 µM): 1.19
- relative viability (NCI-H2126; first compound 0.1 µM): 1.2
- relative viability (NCI-H2126; first compound 0.3162 µM): 1.28
- relative viability (NCI-H2126; first compound 1 µM): 1.26
- relative viability (EMC-BAC-2; first compound 0.01 µM): 1.08
- relative viability (EMC-BAC-2; first compound 0.03162 µM): 1
- relative viability (EMC-BAC-2; first compound 0.1 µM): 1.08
- relative viability (EMC-BAC-2; first compound 0.3162 µM): 1.04
- relative viability (EMC-BAC-2; first compound 1 µM): 0.89
- relative viability (NCI-H1755; first compound 0.01 µM): 0.908
- relative viability (NCI-H1755; first compound 0.03162 µM): 0.96
- relative viability (NCI-H1755; first compound 0.1 µM): 0.921
- relative viability (NCI-H1755; first compound 0.3162 µM): 0.918
- relative viability (NCI-H1755; first compound 1 µM): 0.473
- relative viability (NCI-H358; first compound 0.01 µM): 0.532
- relative viability (NCI-H358; first compound 0.03162 µM): 0.76
- relative viability (NCI-H358; first compound 0.1 µM): 0.628
- relative viability (NCI-H358; first compound 0.3162 µM): 0.647
- relative viability (NCI-H358; first compound 1 µM): 0.378
- relative viability (NCI-H2085; first compound 0.01 µM): 0.946
- relative viability (NCI-H2085; first compound 0.03162 µM): 0.938
- relative viability (NCI-H2085; first compound 0.1 µM): 0.865
- relative viability (NCI-H2085; first compound 0.3162 µM): 1.21
- relative viability (NCI-H2085; first compound 1 µM): 0.697
- relative viability (NCI-H1915; first compound 0.01 µM): 1.18
- relative viability (NCI-H1915; first compound 0.03162 µM): 1.08
- relative viability (NCI-H1915; first compound 0.1 µM): 1.09
- relative viability (NCI-H1915; first compound 0.3162 µM): 1.04
- relative viability (NCI-H1915; first compound 1 µM): 0.981
- relative viability (UMC-11; first compound 0.01 µM): 1.04
- relative viability (UMC-11; first compound 0.03162 µM): 1.1
- relative viability (UMC-11; first compound 0.1 µM): 1.11
- relative viability (UMC-11; first compound 0.3162 µM): 0.765
- relative viability (UMC-11; first compound 1 µM): 0.384
- relative viability (HCC-78; first compound 0.01 µM): 0.619
- relative viability (HCC-78; first compound 0.03162 µM): 0.611
- relative viability (HCC-78; first compound 0.1 µM): 0.589
- relative viability (HCC-78; first compound 0.3162 µM): 0.682
- relative viability (HCC-78; first compound 1 µM): 0.578
- relative viability (COR-L 105; first compound 0.01 µM): 1.25
- relative viability (COR-L 105; first compound 0.03162 µM): 1.01
- relative viability (COR-L 105; first compound 0.1 µM): 1.01
- relative viability (COR-L 105; first compound 0.3162 µM): 1.09
- relative viability (COR-L 105; first compound 1 µM): 0.643
- relative viability (NCI-H441; first compound 0.01 µM): 1.3
- relative viability (NCI-H441; first compound 0.03162 µM): 1.07
- relative viability (NCI-H441; first compound 0.1 µM): 1.11
- relative viability (NCI-H441; first compound 0.3162 µM): 1.19
- relative viability (NCI-H441; first compound 1 µM): 0.955
- relative viability (NCI-H1993; first compound 0.01 µM): 0.772
- relative viability (NCI-H1993; first compound 0.03162 µM): 0.878
- relative viability (NCI-H1993; first compound 0.1 µM): 0.801
- relative viability (NCI-H1993; first compound 0.3162 µM): 0.821
- relative viability (NCI-H1993; first compound 1 µM): 0.708
- relative viability (LXF-289; first compound 0.01 µM): 0.991
- relative viability (LXF-289; first compound 0.03162 µM): 1.05
- relative viability (LXF-289; first compound 0.1 µM): 1.05
- relative viability (LXF-289; first compound 0.3162 µM): 1.01
- relative viability (LXF-289; first compound 1 µM): 1.08
- relative viability (EPLC-272H; first compound 0.01 µM): 0.676
- relative viability (EPLC-272H; first compound 0.03162 µM): 0.654
- relative viability (EPLC-272H; first compound 0.1 µM): 0.654
- relative viability (EPLC-272H; first compound 0.3162 µM): 0.615
- relative viability (EPLC-272H; first compound 1 µM): 0.256
- relative viability (HOP-62; first compound 0.01 µM): 1.17
- relative viability (HOP-62; first compound 0.03162 µM): 1.14
- relative viability (HOP-62; first compound 0.1 µM): 1.23
- relative viability (HOP-62; first compound 0.3162 µM): 1.1
- relative viability (HOP-62; first compound 1 µM): 1.14
- relative viability (NCI-H2023; first compound 0.01 µM): 0.788
- relative viability (NCI-H2023; first compound 0.03162 µM): 0.529
- relative viability (NCI-H2023; first compound 0.1 µM): 0.652
- relative viability (NCI-H2023; first compound 0.3162 µM): 0.393
- relative viability (NCI-H2023; first compound 1 µM): 0.098
